Reference: PubChem BioAssay (NCI)
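Grown in 96-well plates, cells were treated for 48 hours with each compound at five concentrations. Insufficient inhibition: endpoint recorded as highest concentration tested. TGI: total growth inhibition.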

Columns and labels:
Experiment in all cases: inhibition of tumour cell growth, NCI panel, 48 h
HOP-18 NSCLC = system: HOP-18 NSCLC
LXFL 529 NSCLC = system: LXFL 529 NSCLC
DMS 114 small cell lung = system: DMS 114 small cell lung
XF 498 CNS = system: XF 498 CNS
DMS 273 small cell lung = system: DMS 273 small cell lung
M19-MEL melanoma = system: M19-MEL melanoma
DLD-1 colon = system: DLD-1 colon
KM20L2 colon = system: KM20L2 colon
T-47D breast = system: T-47D breast
HS 578T breast = system: HS 578T breast

SMILES	TGI (HOP-18 NSCLC) [µM]	TGI (LXFL 529 NSCLC) [µM]	TGI (DMS 114 small cell lung) [µM]	TGI (XF 498 CNS) [µM]	TGI (DMS 273 small cell lung) [µM]	TGI (M19-MEL melanoma) [µM]	TGI (DLD-1 colon) [µM]	TGI (KM20L2 colon) [µM]	TGI (T-47D breast) [µM]	TGI (HS 578T breast) [µM]
COC1(OC)CCC2C1C1CCC(OC)(OC)C21 (centres undefined)	> 50	> 50	> 50	> 50	> 50	> 50	> 50	> 50		
CCCCCCCCCCCOc1ccc(C(=O)C(=O)c2ccc(OCCCCCCCCCCC)c(OCCCCCCCCCCC)c2)cc1OCCCCCCCCCCC		> 100	> 100	> 100	> 100	> 100	> 100	> 100		
CCOC(=O)C1=C(C)NC(=S)NC1c1ccccc1 (centres undefined)	98.4	> 100	> 57.2	99.7	> 100	> 58.9	> 100	> 56.5		
O=C(/C=C/c1ccccc1)NC1C=Nc2ccc(Cl)cc2NC1=O (centres undefined)	> 100	> 100	30.4	50.1	54.6	64.5	> 100	62.9		
COC1CCC2C(NS(=O)(=O)c3ccc(C)cc3)CCCC2O1 (centres undefined) (tested in a mixture with another compound)			27.9		22.8	> 34.5	> 34.5	> 34.5		
CC(C)C/C(CC(=O)CCC(=O)Nc1ccccc1[N+](=O)[O-])=N\NC(=O)c1cc2ccccc2cc1O	> 100	> 100	86.8	> 100		65.1	> 100	> 100		
O=C(O)c1ccccc1[Se][Se]c1ccccc1C(=O)O	> 100		> 100	> 100	> 100	> 100	> 100	68.5		
CCCCC(=O)OCC(=O)[C@]1(O)Cc2c(O)c3c(c(O)c2[C@@H](OC2CC(NC(=O)C(F)(F)F)C(O)C(C)O2)C1)C(=O)c1c(OC)cccc1C3=O (some centres undefined)		> 32.7	1.66	0.97	3.39	1.9	13.2	> 100	7.55	5.05
O=C(O)CCc1coc2ccc(O)cc12	> 100	> 100	> 100	> 100	> 100	> 100	> 100	> 100		
C[C@]12CC[C@H](O)CC1=CC[C@@H]1C2CC[C@]2(C)C(=O)N(N)C(=O)CC12 (some centres undefined)	> 100	> 100		> 100	> 100	> 100	> 100	> 100		
Clc1cc2nsnc2c(Cl)n1	31.7	27.8	33.5	31.2	> 100	75.5	42.1	> 100		
N#CC1C(C#N)C2(c3ccccc3)C(c3ccccc3)=NN(c3ccccc3)CC12 (centres undefined)	> 100	> 100	> 100	> 100	> 100	> 100	> 100	> 100		
CC(C)=CC(=O)C1c2cccc(O)c2C(=O)c2c(O)cc(C)cc21 (centres undefined)	4.03	4.47	3.57	3.11	9.46	3.43	7.89	17.6		
Cc1cccc2c(=O)cc(-c3ccccc3)[nH]c12		> 100	> 100	> 100	> 100	> 100	> 100	19.4		
COC(CN1C(=O)c2cccc3cccc(c23)C1=O)OC	> 100	> 100	> 100	> 100	> 100	> 100	> 100	> 100		
Cc1nc2ccccc2c(=O)n1-c1ccccc1I		> 100	> 100			> 100	> 100			
CCOc1ccc(NC(=O)C(=O)CC(=O)c2c[n+](=O)c3cc(C)c(C)cc3n2[O-])cc1	> 100	> 100	> 100	> 100	> 100	> 100		> 100		
CN1C(=O)C(C)(C)C2(SC(C)(C)C2(C)C)N(C)C1=S (centres undefined)	> 100	> 100	> 100		> 100	> 100	> 100			
CC(=O)NNc1nc(C)c(C(=O)NNC(=O)C(=O)Nc2ccc(Cl)cc2)s1		> 100		> 100		> 100		> 100		
